Six compounds from patent US8846330B2, “Methods and kits for the diagnosis of RyR1-related diseases” (The Henry M. Jackson Foundation for the Advancement of …, priority 2008, dated 2014) can be followed below.

“Also recorded” adds a separate entry of the source.

Assay [1] has as its system lymphocyte cells. As to the kind of experiment: 4CmC-induced adenosine/inosine in human peripheral blood lymphocytes, HPLC (Example 1). As to conditions: 4CmC-stimulated lymphocytes. In kind it is cell-based. How it is done:
FIG. 2 is a dose-response curve for 4-chloro-m-cresol (4CmC)-induced intracellular adenosine plus inosine in lymphocyte cells from malignant hyperthermia susceptible (MHS, n=11), not-susceptible (MHN, n=9), and normal (n=7) subjects. Lymphocyte cells were treated with 4CmC in the presence of an inhibitor of adenosine deaminase (EHNA, 0.1 mM). After purification, aliquot was analyzed for adenosine and inosine content using HPLC. Adenosine plus inosine values in the absence of 4CmC are plotted against X=0.02 mM to allow logarithmic display of the entire dose response curve. Adenosine plus inosine levels were normalized to reflect per 1 million cells. 4CmC responses at 1, 2, and 5 mM on MHS groups are about 4, 4, and 6 fold higher than the corresponding values in MI-1N or normal groups with values of 6×10^−5, 8×10^−5, and […], respectively. There were no overlaps between the MHS group and the MHN or normal groups.
Lymphocyte cells from MHS (n=11), MHN (n=9) and normal (n=7) subjects were suspended in normal HBSS plus 0.1% BSA and treated with adenosine deaminase inhibitor (EHNA, 0.1 mM). After 10 minutes of incubation at 37° C., cells were treated with HBSS, with and without the RyR1 agonist 4CmC (5 mM) and incubated at 37° C. for an additional 45 minutes. After termination and purification of the samples, aliquots (50 μl) were assayed in duplicate for adenosine and inosine content using HPLC. Concentrations are normalized to per 1 million cells. The sum of the adenosine plus inosine level is about 6-fold higher than corresponding values in normal and MHN cells.
Pilot studies were conducted using blood samples from human subjects in the following groups: Group 1: MHS subjects with positive CHCT and/or having a known MH associated mutation (n=11); Group 2: non-MH susceptible with negative CHCT results (MHN) (n=9), and Group 3: normal subjects who had not undergone CHCT and had no family history of MH (n=7).
Briefly, venous blood samples (20 ml) were drawn from patients using heparinized blood collection tubes. Peripheral blood lymphocyte cells were isolated from whole blood by the Ficoll-Hypaque centrifugation technique. Briefly, diluted anti-coagulated blood is layered over Ficoll-Hypaque and centrifuged. Mononuclear cells consisting of lymphocytes and some monocytes are recovered at the interface. The cells were washed with the Flanks' balanced salt solution (HBSS) buffer, re-suspended in the HBSS buffer, and treated with different concentration of 4CmC at 37° C. in the presence and/or absence of inhibitor of adenosine deaminase erythro-9-(2-hydroxy-3-nonyl)adenine (EHNA) for about 30 minutes. The cells were then purified by adding an equal volume of 6% HClO4 and centrifuged at 6000 rpm for 10 minutes. Aliquots of the supernatant were analyzed for adenosine and inosine content with HPLC using a Waters Separation Module (Model 2695) equipped with Waters Photodiode Array Detector and Empower software.

For assay [2], the system named is lymphocyte cells. As to the kind of experiment: 4CmC-induced adenosine in human lymphocyte / immortalized B cells (Example 3). It counts as cell-based.
For assay [3], the system named is lymphocyte cells. As to the kind of experiment: 4CmC-induced adenosine in swine lymphocyte cells, nucleosides assay (Example 4). It counts as cell-based. As to conditions: for effect of azumolene on 4CmC-induced adenosine: azumolene up to 1 mM (0-1000 μM). The procedure: Isolation of lymphocytes from whole blood: Lymphocyte cells were isolated from whole blood by Ficoll-Hypaque density gradient centrifugation technique (see Boyum A., Scand. J. Clip. Lab. 97:77-89 (1968)). Isolated lymphocyte cells were dispensed into 3-volume normal Hanks' balanced salt solution (HBSS) and centrifuged (10 minutes at 1000 RPM). The pellet was re-suspended in HBSS to lyse contaminating erythrocytes and spun. The later step was repeated one more time. To maintain simplicity of the protocol for possible MH diagnostic purposes no further purification was attempted. Lymphocyte cells were then cultured in RPMI-1640 media supplemented with 10% fetal bovine serum, […] penicillin and 2 mM glutamine. Cell cultures were incubated at 37° C. in a humidified chamber with 5% CO2. All experiments were completed within 4 days after isolation of lymphocyte cells from whole blood samples.
Nucleosides Assay Protocol: Briefly, lymphocyte cells (1−2×10^6 cells/test) were suspended in HBSS with or without Ca^2+/Mg^2+ (as indicated for each experiment) plus 0.1% bovine serum albumin (BSA). Experiments were carried out in the presence of the adenosine deaminase inhibitor erythro-9-(2-hydroxy-3-nonyl) adenine-HCl ([…]) to prevent deamination of adenosine to inosine (Lorbar et al., J Mol Cell Cardiol 31: 401-12 (1999)) and incubated at 37° C. for 10 minutes followed by treatment with different 4CmC concentrations (0.05-10 mM). Further incubation at 37° C. for an additional 45 minutes was also carried out. Final volumes of the test tubes were adjusted to 0.2 ml using HBSS buffer. Termination of the cell activity and purification of samples was accomplished by addition of 0.1 ml 12% perchloric acid followed by centrifugation at 5000 RPM for 10 minutes. Aliquots of the supernatant (50 μl) were assayed for adenosine and inosine content using HPLC.
HPLC Conditions: The HPLC system consisted of a Waters Symmetry C18 column (4.6×250 mm) and mobile phase of 94% KH2PO4 (50 mM, pH 4.6) containing 1-heptanesulfonic acid (0.5 mM) and 6% acetonitrile. Under these conditions, retention times for inosine and adenosine were 4 and 7.3 min, respectively. Peak width of inosine and adenosine were 18 and 36 seconds, respectively. Eluting compounds were detected by their absorbance at 254 nm using a Waters photodiode array detector (model 996). Sample adenosine and inosine concentrations were obtained using a calibrated standard curve of concentrations vs. peak area.
Statistics: Sample nucleosides concentrations were normalized to represent per 1 million cells and presented as means±SEM. The t-test was applied to test for differences between agonist-induced nucleosides in lymphocyte cells from MHS and normal swine. A P<0.05 considered to indicate statistical significance.

Assay [4] has as its system skeletal muscle strips (Vastus lateralis). As to the kind of experiment: caffeine halothane contracture test (CHCT), swine muscle strips.
Assay [5] concerns biopsied skeletal muscle strips. As to the kind of experiment: caffeine halothane contracture test (CHCT), human muscle strips. As to conditions: 2 mM caffeine, average of 3 muscle strips. The text has this:
Currently definitive MH diagnosis is made by means of the invasive, surgery-requiring caffeine halothane contracture test (CHCT) in North America, by a similar in vitro contracture test (IVCT) in Europe and by technically very difficult calcium induced calcium release (CICR) in Japan; all these tests use biopsied leg muscle (Vasitis lateralis). Other countries are using tests essentially similar to one or these tests. CHCT has a sensitivity of 97% (accurately detects MH susceptible individuals) with a specificity of only 78% (yields 22% false positives). However, because of the invasive surgery, the costs of the test, and the limited viability of the biopsied skeletal muscle samples, the CHCT must be completed within 5 hours post biopsy. Therefore, the muscle biopsies must be conducted at a certified MH diagnostic center or in close-by hospitals (currently there are only 6 MH diagnostic centers in North America). Because of these procedural and logistic complexities, it is estimated that only about 10% of all individuals eligible to undergo the CHCT test are actually tested (estimated from referrals to the North American Malignant Hyperthermia Hotline).

[6] abbreviates: muscle strips from normal swine.

Turning to `CCCCCC[C@@H]([C@@H](C)O)n1cnc2c(N)ncnc21` (racemic) [EHNA, erythro-9(2-hydroxy-3-nonyl)adenine], in the assay with lymphocyte cells [1], the “EHNA concentration at which inosine formation decreased, matched by equimolar increase in adenosine” value was at least 10 µM. In the assay with lymphocyte cells [2] (immortalized B cells from a CHCT positive (MHS) subject, 4CmC 2 mM, FIG. 4), the “inhibition of ADO deaminase by EHNA” value was “effectively inhibited”. In the assay on lymphocyte cells [3] (swine lymphocytes (n=3)), the “EHNA concentration at which inosine formation decreased and ADO increased to plateau level” value was at least 20 µM.
Consider `FC(F)(F)C(Cl)Br` (centres unmarked) [Halothane, halothane], for which the “Halothane (3%)-induced contractures, mean” value amounted to 19.2±3.1 mN in assay [4] (muscle strips from MHS swine) and 1.2±1.0 mN in assay [4] (setting [6]). Besides, the “Halothane (3%)-induced contractures, range” value was 11.2-33.1 mN in assay [4] (muscle strips from MHS swine) and 0-1.8 mN in assay [4] (setting [6]).
On to `C1CCC[C@H]2CCCN3CC[C@@H](CCCCCC[C@@H]4CCCN5CC[C@@H](CC1)O[C@@H]45)O[C@@H]23` [XeC, Xestospongin C], for which the “effect of XeC alone on basal ADO levels” value in the assay with lymphocyte cells [2] (XeC 1 and 10 μM) is given as “did not produce any change”; with lymphocyte cells [3] (XeC 1 and 10 μM, Ca2+/Mg2+-free HBSS), “did not affect”. The “effect of XeC on response of B cells to 4CmC” value in the assay with lymphocyte cells [2] (immortalized B cells (MHS, n=3), Ca2+ free HBSS, 2 mM 4CmC) is “did not affect”. For the same compound, the “effect of XeC on 4CmC-induced ADO” value in the assay on lymphocyte cells [3] (1 μM XeC, 2 mM 4CmC, normal swine) is “did also not affect”. Further, the “decrease of 4CmC-induced ADO by XeC” value in the assay with lymphocyte cells [3] (10 μM XeC, 2 mM 4CmC, normal swine (n=5)) is on record as 27%. In the assay on lymphocyte cells [3] (XeC as printed in figure legend, normal swine), the “effect of XeC on 4CmC (2 mM)-induced adenosine” value is “Significantly (P=0.002) Reduced”.
Regarding `Cn1c(=O)c2c(ncn2C)n(C)c1=O` [Caffeine, caffeine], the “CHCT Results Contractures (g) 2 mM Caf” value in assay [5] (Table 1, CHCT-negative subjects) was 0 g; in assay [5] (Table 2, MHN subjects), 0 g. For the same compound, the “Caffeine (2 mM)-induced contractures, range” value in assay [4] (muscle strips from MHS swine) was 4.7-17.1 mN; in assay [4] (setting [6]), 0-1 mN. In assay [4] (setting [6]), the “Caffeine (2 mM)-induced contractures, mean” value worked out at 0.4 mN.
On to `N#CC(C#N)=NNc1ccc(OC(F)(F)F)cc1` [FCCP, Carbonyl cyanide 4-(trifluoromethoxy) phenylhydrazone], for which, in the assay on lymphocyte cells [3] (FCCP 2 and 20 μM, FIG. 14A), the “ADO level reached with FCCP alone” value lay within 0.1 to 0.12 µM and the “effect of FCCP on basal adenosine levels” value was “significantly increased”. The “increase of basal ADO levels by FCCP alone” value with lymphocyte cells [3] (FCCP 2 and 20 μM, normal swine, Ca2+/Mg2+ free HBSS) worked out at 4.5 fold. Also, in the assay with lymphocyte cells [3] (both tested FCCP concentrations, 1 mM 4CmC during FCCP treatment (FIG. 14B)), the “effect of FCCP on 4CmC-induced ADO formation” value was “prevented the maximum increase in ADO formation”. Moreover, the “effectiveness of FCCP in inducing ADO formation relative to 4CmC” value with lymphocyte cells [3] (normal swine lymphocytes) is reported as 25%.
For `O=C1CN(/N=C/c2ncc(-c3ccc(Br)cc3)o2)C(=O)N1` [azumolene], the “effect of azumolene on 4CmC-induced adenosine” value is on record as “only marginally inhibited” in the assay on lymphocyte cells [3] (1 mM 4CmC, normal swine (n=5), Ca2+/Mg2+-free HBSS) and “did not significantly decrease; also recorded: did not significantly affect” with lymphocyte cells [3] (1 mM 4CmC, normal swine (n=5), Ca2+/Mg2+-free HBSS, listed as Azumolene). Moreover, the Ki in the assay on lymphocyte cells [3] (non-linear curve fitting, 1 mM 4CmC, read-out: apparent Ki value of azumolene for inhibition of 4CmC-induced ADO formation) is around 5 mM.
